Experimental data reported in patent publication US4879212A, “Peptide composition and method for the detection of antibodies to HTLV-III” (United Biomedical Inc., priority 1987, dated 1989).
Ends that are not written are not given here.

What was measured:
anti HTLV-III antibodies = experiment: Immunoreactivity of peptides at 1 ug per well in ELISA with pooled AIDS serum, relative to 21mer peptide; type: binding, human; conditions: for Reactivity %: 1 ug per well, pooled AIDS serum sample, 21mer peptide set as 100%
Excerpt: Various peptide analogs based on the above described amino acid sequence have been prepared. These analogs and their reactivities with the anti HTLV-III antibodies present in sera of AIDS and ARC patients are described in Example 8 and Table III. The reactivity in an ELISA test for the same amount of each peptide by weight per volume was compared with the reactivity of the 21mer peptide, which was assigned a reactivity of 100.
The 35mer peptide, 19mer peptide, 11mer peptide and eight analogues of the 21mer peptide, and overlapping 19mer peptide were prepared in their amide form according to the classical Merrifield method described herein above.
The immunoreactivity of the various peptides at 1 ug per well level was tested using a pooled AIDS serum sample. The reactivity of each peptide was compared with the reactivity of the 21mer peptide which was set as 100%.

antibodies to HTLV-III [1] = type: binding, human; conditions: screened out from over 500 HTLV III positive AIDS serum specimens
Procedure: Following the procedure described in Example 1, mixtures of the 21mer peptide with the 19mer peptide with various weight ratios, from 10:1.25 to 4:1, were used as the immunoadsorbent. The wells were coated with 1 ug of the mixture. The serum samples used were two samples from patients which had been diagnosed as positive for AIDS and two samples from patients with autoimmune diseases. The two AIDS positive samples were screened out from over 500 HTLV III positive AIDS serum specimens and had been showned to be negative in ELISA using only the 21mer peptide as the immunoadsorbent.

antibodies to HTLV-III [2] = system: antibodies to HTLV-III
Excerpt: A third problem which has plagued this area is the possibility of false negative results.
where A492 (RC) is the absorbance reading for the reactive control and A492 (NRC) is the absorbance reading for the non-reactive control.

antibodies to HTLV-III [3] = conditions: cited from earlier work

Row | Substance | Reactivity % (anti HTLV-III antibodies) | ELISA result of the two AIDS positive samples (antibodies to HTLV-III [1]) | serum samples positive by Western Blot Analysis giving negative results (antibodies to HTLV-III [2]; 12 out of 449) | accuracy of the results (antibodies to HTLV-III [2]; cutoff point=0.1xA492 (RC)+1xA492 (NRC)) | serum samples positive by Western Blot Analysis giving negative results, out of 449 (antibodies to HTLV-III [2]; mostly at the later stage of AIDS) | immunoreactivity (in words) (antibodies to HTLV-III [3]) | immunoreactivity (in words) (anti HTLV-III antibodies; observed from Table III)
1 | Arg--Ile--Leu--Ala--Val--Glu--Arg--Tyr--Leu--Lys--Asp--Gln--Gln--Leu--Leu--Gly--Ile--Trp--Gly--Cys--Ser [Peptide 6] | 100% | negative | about 2.67% | about 98% | 12 | – | –
2 | Arg-Ile-Leu-Ala-Val-Glu-Arg-Tyr-Leu-Lys-Asp-Gln-Gln-Leu--Leu-Gly-Ile-Trp-Gly-Cys-Ser-Gly-Lys-Leu-Ile-Cys-X | – | – | – | – | – | not as good as the deactivated virus | –
3 | RILAVERYKLDQQLLGIWGCSGKLICTTAVPWNAS (cysteine pairing not given here) [Peptide 17] | 132.0% | – | – | – | – | – | highest immunoreactivity
